{"source": "paper PMC12292862", "about": "(Biomedicines, 2025)", "key": {"[1]": {"test_system": "rat paw tissue dermal collagen", "assay": "Sirius Red staining of dermal collagen in paw tissue", "assay_type": "in vivo", "conditions": "carrageenan-injected paw; compounds 200 mg/kg i.p., indomethacin 10 mg/kg"}, "[2]": {"test_system": "COX-2", "assay": "In vitro colorimetric COX (ovine) inhibitor-screening assay, COX-2", "assay_type": "biochemical", "conditions": "ovine COX-2, tested at 50, 100 and 150 µg/mL", "experimental": "The test compounds’ ability to suppress COX-1 and COX-2 was evaluated using a colorimetric COX (ovine) inhibitor-screening method (Cayman Chemical, Item Number 760111). In brief, 150 μL of assay buffer, 10 μL of heme, 10 μL of enzyme (COX-1 or COX-2), and 10 μL of compound (1 mg/mL) make up the reaction mixture. In a final volume of […], the test compounds were evaluated at doses of 50, 100, and 150 μg/mL. The cyclooxygenase peroxidase component is used in the experiment. By monitoring the appearance of oxidized N, N, […] (TMPD) at 590 nm, the peroxidase activity is measured […]. […] The following formula was used to determine the % COX inhibition: The COX inhibition activity percentage is equal to (1 − T/C ×100), where T is the inhibitor well’s absorbance and C is the starting activity’s absorbance at 100% without the inhibitor well."}, "[3]": {"test_system": "rat paw tissue", "assay": "Histopathological examination of paw tissue (HE)", "assay_type": "in vivo", "conditions": "carrageenan-injected paw; compounds 200 mg/kg i.p., indomethacin 10 mg/kg", "from_the_text": "(§1) At the end of the experiments, the rats were subjected to anesthesia with chloroform and then sacrificed. Blood was obtained via heart puncture for biochemical analysis. Following the animals’ sacrifice, the paws were taken out, decalcified, and stored in a 10% formalin solution. To prepare the tissue samples, they were sliced into thicknesses of 5 µm. Hematoxylin and eosin dyes were used to create the histology slides, which were then examined using a photomicroscope (Meiji Techno®, Iruma, Japan) for pathological alterations. The presence of inflammation was documented. Protease/phosphatase inhibitor cocktail in cold phosphate-buffered saline (1:4) (pH 7, 0.01 mol/L) (Cat. No. PPC1010, Sigma-Aldrich) was used to homogenize each rat’s paw piece in a glass homogenizer. After filtering and centrifuging the resultant homogenate for five minutes at 5000× g, oxidative stress biomarkers like GSH, SOD, and MDA were measured. The trials were repeated three times."}, "[4]": {"test_system": "TNF-α", "assay": "Serum TNF-α (ELISA) in carrageenan-injected rats", "assay_type": "in vivo, rat", "conditions": "compounds 200 mg/kg i.p., indomethacin 10 mg/kg, mean ± SD", "experimental": "(§2) The selective pro-inflammatory cytokines were measured quantitatively using rat-specific Enzyme-Linked Immunosorbent Assay (ELISA) kits from Thermo Scientific™ (Waltham, MA, USA) with CAT. No. ERCRP for CRP; from Elabscience with Cat. No. E-EL-R2856 for TNF-α and with Cat. No. E-EL-R0011 for IL-1α; from CUSABIO, Houston, TX, USA, with Cat. No. CSB-E04640r for IL-6; and from My BioSource Co, USA, with Cat. No. MBS825017 for IL-1β, with Cat. No. MBS753621 for rat cyclooxygenase 1, and with Cat. No. MBS266603 for rat cyclooxygenase 2. Meanwhile, an ovine COX inhibitor-screening in vitro assay (item number 760111) was obtained from Cayman Chemical (Ann Arbor, MI, USA). We purchased malondialdehyde (MDA), glutathione (GSH), and superoxide dismutase (SOD) detection kits from Nanjing Jiancheng Bio-Technology Co. Ltd. (Nanjing, China).\nas §1"}, "[5]": {"test_system": "rat paw tissue", "assay": "Histomorphometry lesion scores of paw tissue sections", "assay_type": "in vivo", "conditions": "vs carrageenan group"}, "[6]": {"test_system": "IL-1β", "assay": "Serum IL-1β (ELISA) in carrageenan-injected rats", "assay_type": "in vivo, rat", "conditions": "compounds 200 mg/kg i.p., indomethacin 10 mg/kg, mean ± SD", "experimental": "as §2, §1"}, "[7]": {"test_system": "CRP", "assay": "Serum CRP (ELISA) in carrageenan-injected rats", "assay_type": "in vivo, rat", "conditions": "compounds 200 mg/kg i.p., indomethacin 10 mg/kg, mean ± SD", "experimental": "as §2, §1"}, "[8]": {"test_system": "carrageenan-induced rat paw edema", "assay": "Carrageenan-induced paw edema", "assay_type": "in vivo", "conditions": "compounds 200 mg/kg i.p., indomethacin 10 mg/kg, 4 h after carrageenan", "from_the_text": "Rats’ carrageenan-induced paw edema model was used to assess the novel synthesized drugs’ anti-inflammatory properties. A total of 180–190 g of male Wistar rats were used for the experiments. In the animal house at Sohag University in Sohag, Egypt, every animal was kept in careful laboratory conditions. After being weighed and divided into six groups at random, the animals are housed for a week to reduce stress and allow them to get used to the laboratory environment. The chemicals that were synthesized were administered intraperitoneally (i.p.) to rats at a dosage of 200 mg/kg. The control group received only vehicles. […] The rats were given a 0.2 mL sub-plantar injection of a 1% (w/v) suspension of carrageenan (made in PBS) in their right hind paw thirty minutes following the injection of synthesized compounds [33]. […] The % inhibition of paw edema was calculated by the following formula [34]:%Inhibition = ((Mean edema of control group − Mean edema of test compound)/(Mean edema of control group)) × 100."}, "[9]": {"test_system": "IL-1α", "assay": "Serum IL-1α (ELISA) in carrageenan-injected rats", "assay_type": "in vivo, rat", "conditions": "compounds 200 mg/kg i.p., indomethacin 10 mg/kg, mean ± SD", "experimental": "as §2, §1"}, "[10]": {"test_system": "rat cyclooxygenase 1", "assay": "COX-1 level in carrageenan-injected paw (ELISA)", "assay_type": "in vivo", "conditions": "compounds 200 mg/kg i.p., indomethacin 10 mg/kg, mean ± SD", "experimental": "as §2, §1"}, "[11]": {"test_system": "rat cyclooxygenase 2", "assay": "COX-2 level in carrageenan-injected paw (ELISA)", "assay_type": "in vivo", "conditions": "compounds 200 mg/kg i.p., indomethacin 10 mg/kg, mean ± SD", "experimental": "as §2, with “Meanwhile, an ovine COX inhibitor-screening in vitro assay (item number 760111) was obtained from Cayman Chemical (Ann Arbor, MI, USA).” left out\nas §1"}, "[12]": {"test_system": "IL-6", "assay": "Serum IL-6 (ELISA) in carrageenan-injected rats", "assay_type": "in vivo, rat", "conditions": "compounds 200 mg/kg i.p., indomethacin 10 mg/kg, mean ± SD", "experimental": "as §2, §1"}}, "note": "Entries after “also recorded” stand apart in the source; their conditions may differ. Marks after values point to notes of the source that are not given here.", "data": [{"smiles": "COc1ccc2c(c1)c(CC(=O)O)c(C)n2C(=O)c1ccc(Cl)cc1", "note": "[indomethacin, reference compound]", "values": [{"measurement": "dermal collagen content and distribution (Sirius Red)", "setting": "[1]", "result": "marked dispersed collagenous fibers; also recorded: markedly dispersed and less organized"}, {"measurement": "COX-2 inhibition % (mean activity)", "setting": "[2]", "result": 97, "unit": "%"}, {"measurement": "histopathological findings of paw tissue (HE)", "setting": "[3]", "result": "marked edema"}, {"measurement": "TNF-α", "setting": "[4]", "result": "11.30 ± 0.30 ^b pg/mL"}, {"measurement": "inflammation scores", "setting": "[5]; Figure 11A", "result": "significantly reduced inflammation scores"}, {"measurement": "vascular alteration scores", "setting": "[5]; Figure 11C", "result": "significantly mitigated vascular alterations"}, {"measurement": "IL-1β", "setting": "[6]", "result": "92.86 ± 0.47 ^b pg/mL"}, {"measurement": "CRP", "setting": "[7]", "result": "6.23 ± 0.22 ^b ng/mL"}, {"measurement": "inhibition of paw edema after 4 h", "setting": "[8]", "result": 57.66, "unit": "%"}, {"measurement": "IL-1α", "setting": "[9]", "result": "79.28 ± 0.55 ^b pg/mL"}, {"measurement": "COX-1 level", "setting": "[10]", "result": "6.31 ± 0.08", "unit": "ng/mL"}, {"measurement": "COX-2 level", "setting": "[11]", "result": "5.11 ± 0.13", "unit": "ng/mL"}, {"measurement": "IL-6", "setting": "[12]", "result": "18.49 ± 0.27 ^b pg/mL"}]}]}
